Laboratory results: publication PMC8910872, “A Competition between Hydrogen, Stacking, and Halogen Bonding in N-(4-((3-Methyl-1,4-dioxo-1,4-dihydronaphthalen-2-yl)selanyl)phenyl)acetamide: Structure, Hirshfeld Surface Analysis, 3D Energy Framework Approach, and DFT Calculation” (International Journal of Molecular Sciences, 2022)
Entries after “also recorded” stand apart in the source; their conditions may differ.

Tests used:
[1] = tested on: 158N cells; test: MTT cytotoxicity assay on 158N oligodendrocytes; type: cell-based, Murine; conditions: Mus musculus, 0, 1, 10, 20, 50, 100 µM, mean of two parallel experiments, read-out: IC50 (viability of 158N cells)
Excerpt: (§1) The cytotoxicity was estimated by the MTT assay against different oligodendrocytes, such as 158 JP and 158 N cells, and 7-ketocholesterol was the control. Different in vitro assays were used to estimate the redox activity, including the dihydroethidium (DHE), 2′,7′-dichlorodihydrofluorescein diacetate (H2-DCFDA), 2,2′-azinobis-3-ethylbenzothioazoline-6-sulphonate (ABTS), 2,2-diphenyl-2-picrylhydrazyl (DPPH), and the bleomycin-induced DNA damage assays.
(§2) Murine oligodendrocytes (158N and 158JP) were seeded at 240,000 cells per 24-well plates and were grown using the Dulbecco’s Modified Eagle Medium supplemented with penicillin antibiotics (1% v/v, streptomycin) and fetal bovine serum (5% v/v) and kept at 37 °C an atmosphere containing 5% CO2 [3]. […] Organ ic sel enides 4 and 5 were prepared in DMSO and then diluted with DMEM up to 1 mM.
The MTT assay was carried out on 158N and 158JP cells after one day of incubation with 7kc (50µM)/different concentrations (0, 1, 10, 20, 50, and 100 µM) of the o rganic selenides 4 an d 5 were. In live cells, the MTT is reduced to formazan by the succinate dehydrogenase mitochondrial enzy me. The microplate reader Tecan Sunrise (Tecan, Lyon, France) was used for the reading of the plates at 570 nm. The IC50 values and the maximu m concentrations without toxicity were estimated for organic selenides 4 and 5 from the respective dose-response curves.
Table S1. Effect of the organoselenium compounds on the viability of 158N and 158JP […]
The cytotoxicity was measured after two days of treatment with different concentrations (0, 1, 10, 20, 50, and 100 µM) of the organic selenides using the MTT assay. The IC50 was estimated as the mean of two parallel experiments;

[2] = tested on: 158JP cells; test: MTT cytotoxicity assay on 158JP oligodendrocytes; type: cell-based, Murine; conditions: mean of two parallel experiments
Excerpt: as §1, §2
The MTT assay was carried out on 158N and 158JP cells after one day of incubation with 7kc (50µM)/different concentrations (0, 1, 10, 20, 50, and 100 µM) of the o rganic selenides 4 an d 5 were. […] The microplate reader Tecan Sunrise (Tecan, Lyon, France) was used for the reading of the plates at 570 nm. […]
The cytotoxicity was measured after two days of treatment with different concentrations (0, 1, 10, 20, 50, and 100 µM) of the organic selenides using the MTT assay. […]

[3] = tested on: 158N cells; test: H2-DCFDA assay of ROS production (flow cytometry); type: cell-based, Murine; conditions: for Effect on ROS level / H2-DCF intensity (in words): 158 N cells, 0–50 μM, vitamin E as control; for H2-DCFDA assay (% of control), ROS production: 158N cells, mean ± SD
Excerpt: as §1
(§3) The levels of ROS were monitored with the H2-DCFDA and DHE assays using flow cytometry. Briefly, 158 N cells were mixed with serial concentrations (0–50 μM) of compound 4 and compound 5 using Vitamin E as the control.
ROS overproduction and O2•− were detected with DCF and DHE, respectively. Cultured cells were treated with trypsin re-suspended in PBS (10^6 cells/mL) and kept in the dark for a half-hour at 37°C with H2-DCFDA or DHE at 10 μM and 2 μM and cells were analyzed by flow cytometry.
The green fluorescence of 2’,7’- dichlorofluorescein resulting from the oxidation of H2-DCFDA was analyzed by flow cytometry and collected through a 520/10-nm bandpass filter. DHE, a non-fluorescent compound, rapidly oxidized in ethidium under the action of O2•− to give 2-hydroxyethidium that intercalates with DNA giving red fluorescence of ethidium collected through a 590/10-nm bandpass filter using an excitation of 488 nm and an emission wavelength of 575 nm.
Flomax (Partec) or FlowJo (Tree Star Inc.) software was used for th e data analysis.
Table S2. Evaluation of the effects of compounds on ROS production by H2-DCFDA assay.
H2-DCFDA assay (% of control)
158N Cells were cultured in the presence of different compounds (C1=10; C2= 20; C3=50 µM); Flow cytometry technique was used to evaluate ROS levels via staining cells with H2-DCF; data are shown as mean ± SD and expressed as % control; the significance of the difference between the DMSO and compounds. Treated cells are indicated by (Mann–Whitney test; *: P < 0.05); vitamin E (50 µM) was used as a positive control.

[4] = tested on: 158N cells; test: DHE assay of superoxide anion (O2•−) production (flow cytometry); type: cell-based, Murine; conditions: for DHE assay (% of positive cells), superoxide anion production: 158N cells, mean ± SD
Excerpt: as §1, §3
ROS overproduction and O2•− were detected with DCF and DHE, respectively. Cultured cells were treated with trypsin re-suspended in PBS (10^6 cells/mL) and kept in the dark for a half-hour at 37°C with H2-DCFDA or DHE at 10 μM and 2 μM and cells were analyzed by flow cytometry. […]
Flomax (Partec) or FlowJo (Tree Star Inc.) software was used for th e data analysis. […]
Table S3. Evaluation of the effects of compounds on superoxide anions (O2•− ) production […]
DHE assay (% of positive cells)
158N Cells were grown in the presence of different compounds (C1=10; C2= 20; C3=50 µM); Flow cytometry techniques was used to estimate the O2•− production via staining with DHE; Data are shown as mean ± SD and expressed as % control; Significance of the difference between the DMSO and compounds. […]

[5] = tested on: calf thymus DNA; test: Bleomycin-dependent DNA damage assay; type: biochemical; design: Bleomycin-dependent DNA damage assay (Abs.): scale not given here; conditions: 2 mM tested compound; for Bleomycin-dependent DNA damage assay (Abs.): absorbance at 532 nm, means of 3 replicates; for Bleomycin-dependent DNA damage, % of Vitamin C: relative to L-ascorbic acid (2 mM)
Excerpt: as §1
(§4) Bleomycin-dependent DNA damage
The assay was performed according to the reported method with minor modifications. The reaction mixture contained 0.5 mg/ml calf thymus DNA, 0.05 mg/ml b leomy cin sulfate, 5 mM magnesium chloride, 50 mM ferric chloride, 2 mM tested compound. L-ascorbic acid (2 mM) was used as a positive control. The mixture was incubated at 37 °C for 1 hour. The activity of test compounds was evaluated as malondialdehyde equivalents. Thiobarbituric acid reactive substances, which arose from deoxyribose degradation of DNA were assessed. The reaction was terminated by the addition of 0.05 ml 0.1 M EDTA. The color was developed by adding 0.5 ml of 1% w/v thiobarbituric acid and 0.5 ml of 25% v/v HCl (25% v/v). The tube was capped with a screw cap and heated at 80 °C for 30 min. After cooling in ice water, the mixture was then shaken and centrifuged and the extent of DNA damage was measured by an increase in absorbance at […]
Table S4. The Bleomycin-dependent DNA damage assay.
Compd. No. DNA damage assay % of Vitamin C […]
a ascorbic acid is used as a standard for antioxidant activity; values are means of 3 replicates; b not detected.

[6] = GPx-like activity assay (NADPH-coupled, H2O2 reduction); type: biochemical; conditions: ebselen (41 µM) positive control
Protocol: page 19: GPx -like activity The GPx-kit was purchased from Biodiagnostic (Egypt) and used according to the reported method. The sample was prepared by adding assay buffer and NADPH reagent (0 .1 ml; 24 μmol Glutathione, 4.8 μmol NADPH and12 units Glutathione reductase), and organic selenide 4 (0.01 ml, 41 μM). H2O2 (0.8 mM) was then added, and the absorbance was kinetically recorded every 1 min at wavelength 340 nm over three successive minutes. […]/min was calculated. Ebselen (41 μM) was used as the positive control. For colored organoselenium compounds, their absorbance was subtracted at the used wavelength. 0.008 0.007 0.006 0.005 0.004 0.003 0.002 0.001 0 Eb selen 4 5 Figure S11 . GPx-like activity assay (μM. min-1). The reduction of H2O2 by GPx-like activity was tracked by […] of glutathione disulfide (GSSG) and NADPH to glutathion e (GSH, reduced form) and NADP+, respectively. The latter was detected by a decrease in the absorbance at 340 nm. References 1. […], Jacob C. Sulfur, selenium and tellurium pseudopeptides: synthesis and biological evaluation. Bioo rg. Med. Chem. 22(14), 3610-3619 (2014). 2. […]. Synthesis and anti-tumor evaluation of novel organoselenocyanates and symmetrical diselenides dyestuffs . Der Pharma Chemica. 6, 186-193 (2014).

[7] = Bleomycin-induced DNA damage, DPPH and ABTS in vitro radical scavenging assays; conditions: DPPH, ABTS assays
Excerpt: as §1, §4
The assay was performed according to the reported method with minor modifications. […] The activity of test compounds was evaluated as malondialdehyde equivalents. Thiobarbituric acid reactive substances, which arose from deoxyribose degradation of DNA were assessed. […] After cooling in ice water, the mixture was then shaken and centrifuged and the extent of DNA damage was measured by an increase in absorbance at […]
a ascorbic acid is used as a standard for antioxidant activity; values are means of 3 replicates; b not detected. […]
The hydrogen atom or electron donation ability of the corresponding compounds was measured by estimating the bleaching of the purple color of a methanolic solution of DPPH. […] After 30 min of incubation in the dark, the absorbance was read against a blank at 517 nm. […] The radical scavenging activity was calculated using the following equ ation : I% = (Ablank- […]

[8] = tested on: HepG2; design: method as in PMID 29864687, doi:10.1016/j.arabjc.2021.103051; conditions: read-out: IC50 (cytotoxic activity against HepG2); cited from earlier work
[9] = tested on: MCF-7; design: method as in PMID 29864687, doi:10.1016/j.arabjc.2021.103051; conditions: read-out: IC50 (cytotoxic activity against MCF-7); cited from earlier work

Compound | IC50 [1] [µM] | IC50 (viability of 158JP cells) ([2]; 0, 1, 10, 20, 50, 100 µM) | Effect on ROS level / H2-DCF intensity (in words) [3] | H2-DCFDA assay (% of control), ROS production ([3]; C1 (10 µM)) | H2-DCFDA assay (% of control), ROS production ([3]; C2 (20 µM)) | H2-DCFDA assay (% of control), ROS production ([3]; C3 (50 µM), vitamin E 50 µM) | Effect on O2− production in DHE assay (in words) ([4]; 158 N cells, 0–50 μM) | DHE assay (% of positive cells), superoxide anion production ([4]; C1 (10 µM)) | DHE assay (% of positive cells), superoxide anion production ([4]; C2 (20 µM)) | DHE assay (% of positive cells), superoxide anion production ([4]; C3 (50 µM), vitamin E 50 µM) | Bleomycin-dependent DNA damage assay (Abs.) [5] | Bleomycin-dependent DNA damage, % of Vitamin C [5] [%] | GPx-like activity (in words) [6] | Pro-oxidant properties compared to vitamin C [7] | IC50 [8] [µM] | IC50 [9] [µM] | IC50 ([2]; Mus musculus, 0, 1, 10, 20, 50, 100 µM, read-out: IC50 (viability of 158JP cells)) [µM]
CC1=C([Se]c2ccc(N)cc2)C(=O)c2ccccc2C1=O [Compound 4] | 27 | no growth inhibition was observed | pronounced pro-oxidant activity | 700 ± 143 % of control | 854 ± 135 % of control | 935 ± 307 % of control | promote the production of O2^− | 264 ±25 % of positive cells | 406±29 % of positive cells | 417±31 % of positive cells | 483 | 48.8 | moderate GPx-like activity | up to 60% | 0.9 | 14.7 | –
CC(=O)Nc1ccc([Se]C2=C(C)C(=O)c3ccccc3C2=O)cc1 [Compound 5, N-(4-((3-Methyl-1,4-dioxo-1,4-dihydronaphthalen-2-yl)selanyl)phenyl)acetamide] | 11 | – | decrease the H2-DCF intensity; also recorded: decreased the ROS level | 7 ± 2 % of control | 5 ± 1 % of control | 6 ± 1 % of control | – | 109±12 % of positive cells | 121 ±1 % of positive cells | 120 ±4 % of positive cells | 581 | 58.8 | moderate GPx-like activity | up to 60% | – | – | –
CC(C)CCC[C@@H](C)[C@H]1CC[C@H]2[C@@H]3C(=O)C=C4C[C@@H](O)CC[C@]4(C)[C@H]3CC[C@]12C [Compound 7kc, 7-ketocholesterol, reference compound] | 37 | – | – | – | – | – | – | – | – | – | – | – | – | – | – | – | 74
O=C1O[C@H]([C@@H](O)CO)C(O)=C1O [Vit.C, L-ascorbic acid, reference compound] | – | – | – | – | – | – | – | – | – | – | 989 | 100 | – | – | – | – | –
VITAMINE E [reference compound] | – | – | – | – | – | 94 ± 5 % of control | – | – | – | 74± 1 % of positive cells | – | – | – | – | – | – | –
